From ChEMBL document CHEMBL2401710, “Design, synthesis and structure-activity relationships of zwitterionic spirocyclic compounds as potent CCR1 antagonists” (Bioorg Med Chem Lett, 2013) come the findings set out here.

The nature of the first series: Half life in rat at 5 mg/kg, iv. Particulars: in vivo. The format is ADME, organism-based. Set-up: dose 5 mg/kg, route intravenous.
Usually half-life stands for how long it takes for the measured level to halve. A higher half-life goes with slow decline. In turn, `CN(C)CC(C)(C)COc1cccc(-c2sc(Nc3cccnc3Oc3ccccc3C(C)(C)C)nc2C(F)(F)F)c1` showed a half-life of 2.1 h.

The nature of another series: Antiplatelet activity in human platelet-rich plasma assessed as inhibition of ADP-induced platelet aggregation. In kind it is functional, cell-free.
Conditions: not given
For orientation: IC50 means the point on the concentration scale where inhibition reaches its midpoint. As for `CC(C)(C)c1ccccc1Oc1ncccc1Nc1nc(C(F)(F)F)c(-c2ccccc2)s1`, the IC50 is 5.2 µM.

Another series in a line: Antiplatelet activity in human platelet-rich plasma assessed as ADP-induced platelet aggregation at 10 uM relative to control.
Conditions: not given
The format is functional.
On to `CC(C)(C)c1ccccc1Oc1ncccc1Nc1ncc(-c2ccccc2)s1`, for which the Activity was 87%.
In the case of `CCc1nc(Nc2cccnc2Oc2ccccc2C(C)(C)C)sc1-c1ccccc1`, the Activity is on record as 78%.
On the same count and under the same terms, for `CC(C)(C)c1ccccc1Oc1ncccc1Nc1nc(C(C)(C)C)c(-c2ccccc2)s1` the value was 86%; for `CC(C)(C)c1ccccc1Oc1ncccc1Nc1nc(C(F)(F)F)c(-c2ccccc2)s1`, 61%; for `CC(C)(C)c1ccccc1Oc1ncccc1Nc1nc(C(C)(C)CC(=O)O)c(-c2ccccc2)s1`, 89%.
On to `CN(C)C(=O)c1nc(Nc2cccnc2Oc2ccccc2C(C)(C)C)sc1-c1ccccc1`, for which the Activity is on record as 100%.
The same measure, in the same setting: for `Cc1sc(Nc2cccnc2Oc2ccccc2C(C)(C)C)nc1C(F)(F)F` the value was 96%; for `CCOC(=O)c1sc(Nc2cccnc2Oc2ccccc2C(C)(C)C)nc1C(F)(F)F`, 50%; for `CC(C)(C)c1ccccc1Oc1ncccc1Nc1nc(C(F)(F)F)c(C#N)s1`, 101%.
In the case of `Cc1noc(-c2sc(Nc3cccnc3Oc3ccccc3C(C)(C)C)nc2C(F)(F)F)n1`, the Activity is recorded as 56%.
Take `Cc1ccccc1-c1sc(Nc2cccnc2Oc2ccccc2C(C)(C)C)nc1C(F)(F)F`: the Activity is 54%.
Same read-out and setting: the result for `Cc1ccc(-c2sc(Nc3cccnc3Oc3ccccc3C(C)(C)C)nc2C(F)(F)F)cc1` reads 32%; that for `CC(C)(C)c1ccccc1Oc1ncccc1Nc1nc(C(F)(F)F)c(-c2ccccc2F)s1`, 41%; that for `COc1cccc(-c2sc(Nc3cccnc3Oc3ccccc3C(C)(C)C)nc2C(F)(F)F)c1`, 41%.
The same measure, in the same setting: for `COc1ccc(-c2sc(Nc3cccnc3Oc3ccccc3C(C)(C)C)nc2C(F)(F)F)cc1` the value was 30%; for `CC(C)(C)c1ccccc1Oc1ncccc1Nc1nc(C(F)(F)F)c(-c2ccc(OC(F)(F)F)cc2)s1`, 85%.
The same measure, in the same setting: for `CC(C)(C)c1ccccc1Oc1ncccc1Nc1nc(C(F)(F)F)c(-c2ccc(C#N)cc2)s1` the value was 79%; for `CC(C)(C)c1ccccc1Oc1ncccc1Nc1nc(C(F)(F)F)c(-c2ccccc2O)s1`, 99%; for `CC(C)(C)c1ccccc1Oc1ncccc1Nc1nc(C(F)(F)F)c(-c2cccc(O)c2)s1`, 98%.
`CN(C)CC(C)(C)COc1cccc(-c2sc(Nc3cccnc3Oc3ccccc3C(C)(C)C)nc2C(F)(F)F)c1`: the Activity is recorded as 17%.
